Assay results taken from ChEMBL document CHEMBL3885861, “Open TG-GATES”.

Species on record: Rattus norvegicus
Assay: Open TG-GATES - Regimen: Daily Repeat
Type: toxicity, organism-based, Sprague-Dawley
Set-up: regimen Daily Repeat, gender Male, age 6 weeks
Conditions: in vivo, po, 150 mg/kg, route gavage, dose level High; for APTT / Bas / Eos / Fbg / Hb / Ht / Lym / MCH / MCHC / MCV / Mono / Neu / PT / Plat / RBC / Ret / WBC: tissue Blood; for KIDNEY_L / KIDNEY_R / KIDNEY_TOTAL: tissue Kidney; for LIVER: tissue Liver; for A/G / ALP / ALT / AST / BUN / CRE / Ca / Cl / DBIL / GLC / IP / K / LDH / Na / PL / RALB / TBIL / TC / TG / TP / gamma-GTP: tissue Plasma

For `CN(C)CCC=C1c2ccccc2CCc2ccccc21` [AMITRIPTYLINE], the TERMINAL_BW (72 h, time 3 day) was 200.8 g, the APTT (72 h, time 3 day) was 15 s and the Bas (72 h, time 3 day) was 0.2%. The Eos (72 h, time 3 day) was 1.2%, the Fbg (72 h, time 3 day) was 288.6 mg/dL and the Hb (72 h, time 3 day) was 14.4 g/dL. It also gave a Ht (72 h, time 3 day) of 43.5%, a Lym (72 h, time 3 day) of 79.6% and an MCH (72 h, time 3 day) of 20.5 pg. It also gave an MCHC (72 h, time 3 day) of 33.2%, an MCV (72 h, time 3 day) of 61.8 fL and a Mono (72 h, time 3 day) of 2.4%. The Neu (72 h, time 3 day) was 16.2%, the PT (72 h, time 3 day) was 16 s and the Plat (72 h, time 3 day) was 125 x10_4/uL. The RBC (72 h, time 3 day) was 705 x10_4/ul, the Ret (72 h, time 3 day) was 4.5% and the WBC (72 h, time 3 day) was 87.2 x10_2/uL. The KIDNEY_L (72 h, time 3 day) was 0.9 g, the KIDNEY_R (72 h, time 3 day) was 0.9 g and the KIDNEY_TOTAL (72 h, time 3 day) was 1.8 g. For the same compound, the LIVER (72 h, time 3 day) was 9.1 g, the A/G (72 h, time 3 day) was 0.8 and the ALP (72 h, time 3 day) was 1755.4 IU/L. It also gave an ALT (72 h, time 3 day) of 45.4 IU/L, an AST (72 h, time 3 day) of 63 IU/L and a BUN (72 h, time 3 day) of 13.8 mg/dL. For the same compound, the CRE (72 h, time 3 day) was 0.2 mg/dL, the Ca (72 h, time 3 day) was 10.7 mg/dL and the Cl (72 h, time 3 day) was 106.2 meq/L. For the same compound, the DBIL (72 h, time 3 day) was 0.016 mg/dL, the GLC (72 h, time 3 day) was 174.4 mg/dL and the IP (72 h, time 3 day) was 8 mg/dL. It also gave a K (72 h, time 3 day) of 4.4 meq/L, an LDH (72 h, time 3 day) of 86.2 IU/L and a Na (72 h, time 3 day) of 143.8 meq/L. For the same compound, the PL (72 h, time 3 day) was 155.8 mg/dL, the RALB (72 h, time 3 day) was 2.6 g/dL and the TBIL (72 h, time 3 day) was 0.052 mg/dL. For the same compound, the TC (72 h, time 3 day) was 94.2 mg/dL, the TG (72 h, time 3 day) was 93 mg/dL and the TP (72 h, time 3 day) was 5.8 g/dL. It also gave a gamma-GTP (72 h, time 3 day) of 0.6 IU/L, a TERMINAL_BW ([…], time 7 day) of 206.8 g and a TERMINAL_BW ([…], time 14 day) of 250.8 g. It also gave a TERMINAL_BW ([…], time 28 day) of 303.4 g, an APTT ([…], time 7 day) of 16.2 s and a Bas ([…], time 7 day) of 0%. It also gave an Eos ([…], time 7 day) of 1.4%, a Fbg ([…], time 7 day) of 413.4 mg/dL and a Hb ([…], time 7 day) of 15.3 g/dL. It also gave a Ht ([…], time 7 day) of 45.5%, a Lym ([…], time 7 day) of 70.8% and an MCH ([…], time 7 day) of 20.6 pg. For the same compound, the MCHC ([…], time 7 day) was 33.5%, the MCV ([…], time 7 day) was 61.6 fL and the Mono ([…], time 7 day) was 2.4%. For the same compound, the Neu ([…], time 7 day) was 24.6%, the PT ([…], time 7 day) was 15.9 s and the Plat ([…], time 7 day) was 108.8 x10_4/uL. It also gave an RBC ([…], time 7 day) of 740.8 x10_4/ul, a Ret ([…], time 7 day) of 3.1% and a WBC ([…], time 7 day) of 99.3 x10_2/uL. For the same compound, the APTT ([…], time 14 day) was 16.2 s, the Bas ([…], time 14 day) was 0.6% and the Eos ([…], time 14 day) was 0.8%. It also gave a Fbg ([…], time 14 day) of 326.6 mg/dL, a Hb ([…], time 14 day) of 15 g/dL and a Ht ([…], time 14 day) of 44.7%. The Lym ([…], time 14 day) was 76.6%, the MCH ([…], time 14 day) was 19.7 pg and the MCHC ([…], time 14 day) was 33.6%. The MCV ([…], time 14 day) was 58.6 fL, the Mono ([…], time 14 day) was 2.4% and the Neu ([…], time 14 day) was 19.2%. The PT ([…], time 14 day) was 16.6 s, the Plat ([…], time 14 day) was 110.7 x10_4/uL and the RBC ([…], time 14 day) was 763.4 x10_4/ul. The Ret ([…], time 14 day) was 2.8%, the WBC ([…], time 14 day) was 128.1 x10_2/uL and the APTT ([…], time 28 day) was 22.2 s. The Bas ([…], time 28 day) was 0.3%, the Eos ([…], time 28 day) was 1% and the Fbg ([…], time 28 day) was 311.3 mg/dL. It also gave a Hb ([…], time 28 day) of 15.8 g/dL, a Ht ([…], time 28 day) of 46.1% and a Lym ([…], time 28 day) of 82%. It also gave an MCH ([…], time 28 day) of 19.1 pg, an MCHC ([…], time 28 day) of 34.3% and an MCV ([…], time 28 day) of 55.9 fL. For the same compound, the Mono ([…], time 28 day) was 1.7%, the Neu ([…], time 28 day) was 14% and the PT ([…], time 28 day) was 16.4 s. For the same compound, the Plat ([…], time 28 day) was 97.9 x10_4/uL, the RBC ([…], time 28 day) was 824.3 x10_4/ul and the Ret ([…], time 28 day) was 2%. The WBC ([…], time 28 day) was 104.7 x10_2/uL, the KIDNEY_L ([…], time 7 day) was 0.9 g and the KIDNEY_R ([…], time 7 day) was 1 g. It also gave a KIDNEY_TOTAL ([…], time 7 day) of 1.9 g, a KIDNEY_L ([…], time 14 day) of 1 g and a KIDNEY_R ([…], time 14 day) of 1 g. The KIDNEY_TOTAL ([…], time 14 day) was 2 g, the KIDNEY_L ([…], time 28 day) was 1.2 g and the KIDNEY_R ([…], time 28 day) was 1.2 g. For the same compound, the KIDNEY_TOTAL ([…], time 28 day) was 2.4 g, the LIVER ([…], time 7 day) was 9.5 g and the LIVER ([…], time 14 day) was 12.8 g. It also gave an LIVER ([…], time 28 day) of 16.8 g, an A/G ([…], time 7 day) of 0.8 and an ALP ([…], time 7 day) of 1572.2 IU/L. For the same compound, the ALT ([…], time 7 day) was 42.6 IU/L, the AST ([…], time 7 day) was 64.2 IU/L and the BUN ([…], time 7 day) was 14.4 mg/dL. It also gave a CRE ([…], time 7 day) of 0.2 mg/dL, a Ca ([…], time 7 day) of 10.6 mg/dL and a Cl ([…], time 7 day) of 104.8 meq/L. It also gave a DBIL ([…], time 7 day) of 0.008 mg/dL, a GLC ([…], time 7 day) of 169.2 mg/dL and an IP ([…], time 7 day) of 8 mg/dL. It also gave a K ([…], time 7 day) of 4.1 meq/L, an LDH ([…], time 7 day) of 68.2 IU/L and a Na ([…], time 7 day) of 143.8 meq/L. For the same compound, the PL ([…], time 7 day) was 144.6 mg/dL, the RALB ([…], time 7 day) was 2.7 g/dL and the TBIL ([…], time 7 day) was 0.042 mg/dL. It also gave a TC ([…], time 7 day) of 97 mg/dL, a TG ([…], time 7 day) of 29.6 mg/dL and a TP ([…], time 7 day) of 5.9 g/dL. It also gave a gamma-GTP ([…], time 7 day) of 0.8 IU/L, an A/G ([…], time 14 day) of 0.8 and an ALP ([…], time 14 day) of 1690.2 IU/L. It also gave an ALT ([…], time 14 day) of 39.8 IU/L, an AST ([…], time 14 day) of 59.2 IU/L and a BUN ([…], time 14 day) of 15.8 mg/dL. The CRE ([…], time 14 day) was 0.2 mg/dL, the Ca ([…], time 14 day) was 10.9 mg/dL and the Cl ([…], time 14 day) was 104 meq/L. The DBIL ([…], time 14 day) was 0.012 mg/dL, the GLC ([…], time 14 day) was 164.2 mg/dL and the IP ([…], time 14 day) was 7.6 mg/dL. The K ([…], time 14 day) was 4.3 meq/L, the LDH ([…], time 14 day) was 51.2 IU/L and the Na ([…], time 14 day) was 143.6 meq/L. For the same compound, the PL ([…], time 14 day) was 135 mg/dL, the RALB ([…], time 14 day) was 2.6 g/dL and the TBIL ([…], time 14 day) was 0.042 mg/dL. For the same compound, the TC ([…], time 14 day) was 78.6 mg/dL, the TG ([…], time 14 day) was 62.8 mg/dL and the TP ([…], time 14 day) was 6 g/dL. It also gave a gamma-GTP ([…], time 14 day) of 0.6 IU/L, an A/G ([…], time 28 day) of 0.9 and an ALP ([…], time 28 day) of 1692.3 IU/L. The ALT ([…], time 28 day) was 39.7 IU/L, the AST ([…], time 28 day) was 57.7 IU/L and the BUN ([…], time 28 day) was 14.7 mg/dL. The CRE ([…], time 28 day) was 0.2 mg/dL, the Ca ([…], time 28 day) was 10.7 mg/dL and the Cl ([…], time 28 day) was 103.7 meq/L. The DBIL ([…], time 28 day) was 0.0167 mg/dL, the GLC ([…], time 28 day) was 174 mg/dL and the IP ([…], time 28 day) was 7.1 mg/dL. The K ([…], time 28 day) was 4 meq/L, the LDH ([…], time 28 day) was 50 IU/L and the Na ([…], time 28 day) was 143 meq/L. For the same compound, the PL ([…], time 28 day) was 97.7 mg/dL, the RALB ([…], time 28 day) was 2.9 g/dL and the TBIL ([…], time 28 day) was 0.0467 mg/dL. The TC ([…], time 28 day) was 56.3 mg/dL, the TG ([…], time 28 day) was 35.3 mg/dL and the TP ([…], time 28 day) was 6.3 g/dL. For the same compound, the gamma-GTP ([…], time 28 day) was 0.7 IU/L.
